Test results reported in patent publication US20130245081A1, “Compositions and Methods for Treating Amyotrophic Lateral Sclerosis” (priority 2009, published 2013).
Marks after values point to notes of the source that are not given here.

Tested on: patients with ALS
Experiment: Part 2: 4-week single-blind placebo washout period (withdrawal effects)
[1] = 150 mg during Part 1, placebo washout period
[2] = 300 mg during Part 1, placebo washout period

**Q.** `CCCN[C@@H]1CCc2nc(N)sc2C1` [dexpramipexole, (6R)-2-amino-4,5,6,7-tetrahydro-6-(propylamino)benzothiazole] was tested. Which “Subjects with ≧1 ALS-related TEAE” value [1] did it give?
**A.** The value was 7 (28%) N (%).

**Q.** And the “TEAE: Anxiety” value [1]?
**A.** The value was 0 N (%).

**Q.** What about the “TEAE: Back pain” value [1] of the same molecule?
**A.** The value was 0 N (%).

**Q.** And the “TEAE: Constipation” value [1]?
**A.** Its value is 1 (4%) N (%).

**Q.** And the “TEAE: Cough” value [1]?
**A.** The value was 2 (8%) N (%).

**Q.** What about the “TEAE: Diarrhoea” value [1] of the same molecule?
**A.** The value was 2 (8%) N (%).

**Q.** What about the “TEAE: Dyspnoea” value [1] of the same molecule?
**A.** Its value is 0 N (%).

**Q.** What about the “TEAE: Fall” value [1] of the same molecule?
**A.** The value was 3 (12%) N (%).

**Q.** And the “TEAE: Gastrointestinal Disorders” value [1]?
**A.** The value was 5 (20%) N (%).

**Q.** And the “TEAE: General Disorders and Administration Site Conditions” value [1]?
**A.** Its value is 1 (4%) N (%).

**Q.** And the “TEAE: Injury, Poisoning and Procedural Complications” value [1]?
**A.** The value was 4 (16%) N (%).

**Q.** What about the “TEAE: Muscle spasms” value [1] of the same molecule?
**A.** The value was 1 (4%) N (%).

**Q.** What about the “TEAE: Muscular weakness” value [1] of the same molecule?
**A.** The value was 1 (4%) N (%).

**Q.** And the “TEAE: Musculoskeletal and Connective Tissue Disorders” value [1]?
**A.** Its value is 3 (12%) N (%).

**Q.** And the “TEAE: Nausea” value [1]?
**A.** Its value is 1 (4%) N (%).

**Q.** What about the “TEAE: Post lumbar puncture syndrome” value [1] of the same molecule?
**A.** Its value is 1 (4%) N (%).

**Q.** And the “TEAE: Psychiatric Disorders” value [1]?
**A.** The value was 2 (8%) N (%).

**Q.** What about the “TEAE: Pyrexia” value [1] of the same molecule?
**A.** Its value is 0 N (%).

**Q.** What about the “TEAE: Respiratory, Thoracic and Mediastinal Disorders” value [1] of the same molecule?
**A.** Its value is 2 (8%) N (%).

**Q.** And the “mean change from baseline in ALSFRS-R score over 4 weeks” value [1]?
**A.** The value was −1.0.

**Q.** What about the “mean change from baseline in VC over 4 weeks” value [1] of the same molecule?
**A.** The value was −1.7%.

**Q.** And the “serious TEAE: Disease progression” value [1]?
**A.** The value was 0 N (%).

**Q.** And the “serious TEAE: Dyspnoea” value [1]?
**A.** Its value is 0 N (%).

**Q.** What about the “serious TEAE: General Disorders and Administration Site Conditions” value [1] of the same molecule?
**A.** Its value is 0 N (%).

**Q.** What about the “serious TEAE: Renal and Urinary Disorders” value [1] of the same molecule?
**A.** The value was 0 N (%).

**Q.** What about the “serious TEAE: Respiratory, Thoracic and Mediastinal Disorders” value [1] of the same molecule?
**A.** Its value is 0 N (%).

**Q.** What about the “serious TEAE: Urethral obstruction” value [1] of the same molecule?
**A.** The value was 0 N (%).

**Q.** What about the “serious TEAE: Urinary retention” value [1] of the same molecule?
**A.** Its value is 0 N (%).

**Q.** And the “≧1 TEAE” value [1]?
**A.** Its value is 13 (52%) N (%).

**Q.** And the “≧1 TEAE with an outcome of death” value [1]?
**A.** Its value is 0 N (%).

**Q.** What about the “≧1 serious TEAE (including death)” value [1] of the same molecule?
**A.** The value was 0 N (%).

**Q.** And the “≧1 serious treatment-related TEAE” value [1]?
**A.** Its value is 0 N (%).

**Q.** And the “≧1 severe TEAE” value [1]?
**A.** The value was 0 N (%).

**Q.** What about the “≧1 treatment-related TEAE” value [1] of the same molecule?
**A.** The value was 2 (8%) N (%).

**Q.** And the “Neutrophil Count, Mean (SD)” value (300 mg during Part 1, Baseline (Part 1: Week 12))?
**A.** The value was 3.905 (1.9377) ×10^3/μL.

**Q.** And the “Neutrophil Count, Mean (SD)” value (300 mg during Part 1, Part 2: Week 4 (end of placebo washout))?
**A.** The value was 4.112 (1.1979) ×10^3/μL.

**Q.** What about the “ALS-related TEAE: Disease progression” value [2] of the same molecule?
**A.** Its value is 0 N (%).

**Q.** And the “ALS-related TEAE: Dyspnoea” value [2]?
**A.** Its value is 1 (4%) N (%).

**Q.** And the “ALS-related TEAE: Fall” value [2]?
**A.** Its value is 2 (8%) N (%).

**Q.** What about the “ALS-related TEAE: General Disorders and Administration Site Conditions” value [2] of the same molecule?
**A.** The value was 0 N (%).

**Q.** And the “ALS-related TEAE: Injury, Poisoning and Procedural Complications” value [2]?
**A.** The value was 2 (8%) N (%).

**Q.** What about the “ALS-related TEAE: Muscle spasms” value [2] of the same molecule?
**A.** The value was 1 (4%) N (%).

**Q.** And the “ALS-related TEAE: Muscular weakness” value [2]?
**A.** Its value is 0 N (%).

**Q.** What about the “ALS-related TEAE: Musculoskeletal and Connective Tissue Disorders” value [2] of the same molecule?
**A.** Its value is 1 (4%) N (%).

**Q.** And the “ALS-related TEAE: Respiratory, Thoracic and Mediastinal Disorders” value [2]?
**A.** The value was 1 (4%) N (%).

**Q.** And the “Neutrophil Count, Mean Δ (SD) from baseline to Week 4” value [2]?
**A.** Its value is 0.130 (1.3502) ×10^3/μL.

**Q.** And the “Number of TEAEs” value [2]?
**A.** Its value is 46.

**Q.** What about the “Number of serious TEAEs” value [2] of the same molecule?
**A.** The value was 1.

**Q.** And the “Number of severe TEAEs” value [2]?
**A.** The value was 1.

**Q.** What about the “Number of treatment-related TEAEs” value [2] of the same molecule?
**A.** Its value is 3.

**Q.** What about the “Subjects with a TEAE with action taken of study drug discontinued” value [2] of the same molecule?
**A.** The value was 1 (4%)^b N (%).

**Q.** What about the “Subjects with ≧1 ALS-related TEAE” value [2] of the same molecule?
**A.** Its value is 5 (21%) N (%).

**Q.** What about the “TEAE: Anxiety” value [2] of the same molecule?
**A.** Its value is 0 N (%).

**Q.** What about the “TEAE: Back pain” value [2] of the same molecule?
**A.** The value was 1 (4%) N (%).

**Q.** What about the “TEAE: Constipation” value [2] of the same molecule?
**A.** The value was 3 (13%) N (%).

**Q.** What about the “TEAE: Cough” value [2] of the same molecule?
**A.** The value was 0 N (%).

**Q.** And the “TEAE: Diarrhoea” value [2]?
**A.** Its value is 1 (4%) N (%).

**Q.** And the “TEAE: Dyspnoea” value [2]?
**A.** The value was 1 (4%) N (%).

**Q.** And the “TEAE: Fall” value [2]?
**A.** Its value is 3 (13%) N (%).

**Q.** What about the “TEAE: Gastrointestinal Disorders” value [2] of the same molecule?
**A.** Its value is 3 (13%) N (%).

**Q.** And the “TEAE: General Disorders and Administration Site Conditions” value [2]?
**A.** The value was 3 (13%) N (%).

**Q.** And the “TEAE: Injury, Poisoning and Procedural Complications” value [2]?
**A.** Its value is 6 (25%) N (%).

**Q.** What about the “TEAE: Muscle spasms” value [2] of the same molecule?
**A.** The value was 1 (4%) N (%).

**Q.** What about the “TEAE: Muscular weakness” value [2] of the same molecule?
**A.** The value was 0 N (%).

**Q.** And the “TEAE: Musculoskeletal and Connective Tissue Disorders” value [2]?
**A.** The value was 2 (8%) N (%).

**Q.** What about the “TEAE: Nausea” value [2] of the same molecule?
**A.** Its value is 2 (8%) N (%).

**Q.** And the “TEAE: Post lumbar puncture syndrome” value [2]?
**A.** Its value is 1 (4%) N (%).

**Q.** What about the “TEAE: Psychiatric Disorders” value [2] of the same molecule?
**A.** The value was 0 N (%).

**Q.** And the “TEAE: Pyrexia” value [2]?
**A.** Its value is 2 (8%) N (%).

**Q.** And the “TEAE: Respiratory, Thoracic and Mediastinal Disorders” value [2]?
**A.** Its value is 1 (4%) N (%).

**Q.** What about the “mean change from baseline in ALSFRS-R score over 4 weeks” value [2] of the same molecule?
**A.** Its value is −1.5.

**Q.** And the “mean change from baseline in VC over 4 weeks” value [2]?
**A.** The value was −2.7%.

**Q.** And the “serious TEAE: Disease progression” value [2]?
**A.** The value was 0 N (%).

**Q.** And the “serious TEAE: Dyspnoea” value [2]?
**A.** Its value is 1 (4%) N (%).

**Q.** And the “serious TEAE: General Disorders and Administration Site Conditions” value [2]?
**A.** The value was 0 N (%).

**Q.** What about the “serious TEAE: Renal and Urinary Disorders” value [2] of the same molecule?
**A.** The value was 0 N (%).

**Q.** And the “serious TEAE: Respiratory, Thoracic and Mediastinal Disorders” value [2]?
**A.** Its value is 1 (4%) N (%).

**Q.** And the “serious TEAE: Urethral obstruction” value [2]?
**A.** The value was 0 N (%).

**Q.** What about the “serious TEAE: Urinary retention” value [2] of the same molecule?
**A.** The value was 0 N (%).

**Q.** And the “subjects who required a tracheostomy” value [2]?
**A.** Its value is 1 subject.

**Q.** And the “≧1 TEAE” value [2]?
**A.** Its value is 11 (46%) N (%).

**Q.** What about the “≧1 TEAE with an outcome of death” value [2] of the same molecule?
**A.** Its value is 0 N (%).

**Q.** And the “≧1 serious TEAE (including death)” value [2]?
**A.** Its value is 1 (4%) N (%).

**Q.** And the “≧1 serious treatment-related TEAE” value [2]?
**A.** The value was 0 N (%).

**Q.** What about the “≧1 severe TEAE” value [2] of the same molecule?
**A.** Its value is 1 (4%) N (%).

**Q.** What about the “≧1 treatment-related TEAE” value [2] of the same molecule?
**A.** The value was 2 (8%) N (%).
